Calls of active or inactive are those of the source. The rule behind the calls is not given here.
Experiments:
[1] = target: T1, Cyclin-dependent kinases regulatory subunit 1/S-phase kinase-associated protein 2 (Homo sapiens, UniProt P61024+Q13309); experiment: Inhibition of Cks1-Skp2 (unknown origin) interaction assessed as increase in p27-GFP level by western blot analysis; type: protein assay
Target sequence in this assay (P61024 2-79 limits assumed): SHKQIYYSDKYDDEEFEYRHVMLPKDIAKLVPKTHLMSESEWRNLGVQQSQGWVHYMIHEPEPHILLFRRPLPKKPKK
Target sequence in this assay (Q13309 whole entry partner): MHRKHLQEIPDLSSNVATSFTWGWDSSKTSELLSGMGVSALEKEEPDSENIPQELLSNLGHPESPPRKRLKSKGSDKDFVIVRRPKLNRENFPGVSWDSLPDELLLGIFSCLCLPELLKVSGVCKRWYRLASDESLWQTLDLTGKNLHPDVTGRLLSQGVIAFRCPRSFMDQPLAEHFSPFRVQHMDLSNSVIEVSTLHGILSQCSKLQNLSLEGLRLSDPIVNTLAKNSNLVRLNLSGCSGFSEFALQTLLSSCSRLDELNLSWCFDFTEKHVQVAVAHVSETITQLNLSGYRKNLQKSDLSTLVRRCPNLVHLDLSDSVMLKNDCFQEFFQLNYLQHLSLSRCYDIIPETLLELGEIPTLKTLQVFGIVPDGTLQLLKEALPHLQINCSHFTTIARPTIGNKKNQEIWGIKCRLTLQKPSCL

[2] = target: T1, Cyclin-dependent kinases regulatory subunit 1/S-phase kinase-associated protein 2; experiment: Inhibition of Cks1-Skp2 (unknown origin) interaction assessed as increase in p27-GFP level by ELISA; type: protein assay
Target sequence in this assay (P61024 2-79 limits assumed): as the sequence (P61024 2-79 limits assumed) above
Target sequence in this assay (Q13309 whole entry partner): as the sequence (Q13309 whole entry partner) above

[3] = Antiproliferative activity against human HT1080 cells after 6 days; type: functional; details: HT-1080, 144 h
NCI-H1299 = experiment: Antiproliferative activity against human H1299 cells after 2 days; type: functional, cell-based
A549 [4] = experiment: Antiproliferative activity against human A549 cells after 6 days; type: functional; details: A549, 144 h
A549 [5] = experiment: Antiproliferative activity against human A549 cells after 2 days; type: functional, cell-based
[6] = target: T1, Cyclin-dependent kinases regulatory subunit 1/S-phase kinase-associated protein 2; experiment: Inhibition of Cks1-Skp2 (unknown origin) interaction after 30 mins by ELISA; type: protein assay
[7] = Homo sapiens, NCI-H1299, 48 h, read-out: IC50
[8] = Homo sapiens, A549, 48 h, read-out: IC50

Row | SMILES | Activity [1] | Activity [2] | IC50 (NCI-H1299; [7]) [µM] | GI50 (A549 [4]) [µM] | IC50 (A549 [5]; [8]) [µM] | GI50 [3] [µM] | further results
1 | Cc1ccc(S(=O)(=O)Nc2ccc(N3CCC(Cc4ccccc4)CC3)c3cccnc23)cc1 | inactive | inactive | – | – | – | – | IC50 [6]: Not Active
2 | Cc1ccc(S(=O)(=O)Nc2cc(Oc3cc(F)cc(F)c3)cc3cccnc23)cc1 | Active | Active | 2.46 | 4.11 | 2.94 | 0.08 | –
3 | Cc1ccc(S(=O)(=O)Nc2ccc(N3CCOCC3)c3cccnc23)cc1 | inactive | inactive | – | – | – | – | IC50 [6]: Not Active
4 | Cc1ccc(S(=O)(=O)Nc2ccc(-c3ccccc3)c3ccncc23)cc1 | – | – | – | – | – | – | inhibition [6]: inactive
5 | Cc1ccc(S(=O)(=O)Nc2ccc(Br)c3ccccc23)cc1 | – | – | – | 48.5 | – | 27.4 | IC50 (NCI-H1299; nci-h1299): Not Active; inhibition [6]: inactive; IC50 (A549 [5]; a549): Not Active
6 | O=S(=O)(Nc1ccc(-c2ccncc2)c2cccnc12)C1CC1 | inactive | inactive | – | – | – | – | –
7 | Cc1ccc(S(=O)(=O)Nc2cc(Oc3cccc(C#N)c3)cc3cccnc23)cc1 | – | – | – | 6.48 | – | 6.83 | IC50 (NCI-H1299; nci-h1299): Not Active; IC50 (A549 [5]; a549): Not Active
8 | Cc1ccc(S(=O)(=O)N(C)c2cccc3cccnc23)cc1 | – | – | – | – | – | – | inhibition [6]: inactive
9 | O=S(=O)(Nc1ccc(-c2ccccc2)c2cccnc12)C1CC1 | inactive | inactive | – | – | – | – | –
10 | Cc1ccc(S(=O)(=O)Nc2cccc3cccnc23)cc1 | Active | Active | 5.35 | 2.48 | 7.54 | 2.46 | IC50 ([6]; read-out: IC50): 2.18 µM
11 | Cc1ccc(C(=O)Nc2ccc(Br)c3cccnc23)cc1 | – | – | – | – | – | – | inhibition [6]: inactive
12 | Cc1ccc(NS(=O)(=O)c2ccc(-c3ccccc3)c3cccnc23)cc1 | – | – | – | – | – | – | inhibition [6]: inactive
13 | Cc1ccc(S(=O)(=O)Nc2ccc(N3CCN(C)CC3)c3cccnc23)cc1 | inactive | inactive | – | – | – | – | IC50 [6]: Not Active
14 | COc1ccc(Oc2cc(NS(=O)(=O)c3ccc(C)cc3)c3ncccc3c2)cc1 | inactive | inactive | 11.3 | 4.09 | 16.9 | 0.74 | –
15 | Cc1ccc(S(=O)(=O)Nc2ccc(Br)c3cccnc23)cc1 | Active | Active | – | – | – | – | –

Further lines, with some results ahead:

Row | Activity [1] | Activity [2] | IC50 (NCI-H1299; [7]) [µM] | GI50 (A549 [4]) [µM] | IC50 (A549 [5]; [8]) [µM] | SMILES | GI50 [3] [µM] | further results
16 | Active | Active | – | – | – | COc1ccc(S(=O)(=O)Nc2ccc(-c3ccccc3)c3cccnc23)cc1 | – | –
17 | inactive | inactive | – | – | – | CS(=O)(=O)Nc1ccc(-c2cccnc2)c2cccnc12 | – | –
18 | Active | Active | 8.56 | 2.36 | 7.22 | Cc1ccc(S(=O)(=O)Nc2ccc(-c3ccccc3)c3cccnc23)cc1 | 1.64 | –
19 | Active | Active | – | 26 | – | Cc1ccc(S(=O)(=O)Nc2ccc(-c3ccco3)c3cccnc23)cc1 | 9.78 | IC50 (NCI-H1299; nci-h1299): Not Active; IC50 (A549 [5]; a549): Not Active
20 | Active | Active | 6.95 | 6.02 | 7.13 | Cc1ccc(S(=O)(=O)Nc2ccc(-c3cccnc3)c3cccnc23)cc1 | 4.22 | –
21 | Active | Active | – | – | – | CS(=O)(=O)Nc1ccc(-c2ccccc2)c2cccnc12 | – | –
22 | Active | Active | 4.09 | 2.36 | 4.63 | Cc1ccc(S(=O)(=O)Nc2ccc(-c3ccsc3)c3cccnc23)cc1 | 0.64 | –
23 | Active | Active | 5.31 | 1.24 | 7.94 | COc1ccc(S(=O)(=O)Nc2ccc(-c3cccnc3)c3cccnc23)cc1 | 0.44 | IC50 ([6]; read-out: IC50): 0.58 µM
24 | Active | Active | – | – | – | O=S(=O)(Nc1ccc(-c2ccccc2)c2cccnc12)c1cccnc1 | – | –
25 | Active | Active | 1.05 | 0.91 | 1.49 | O=S(=O)(Nc1ccc(-c2cccnc2)c2cccnc12)c1cccnc1 | 0.4 | –
26 | inactive | inactive | – | – | – | O=S(=O)(Nc1ccc(-c2cccnc2)c2cccnc12)C1CC1 | – | –
27 | Active | Active | – | 5.24 | – | COc1ccc(S(=O)(=O)Nc2ccc(-c3ccncc3)c3cccnc23)cc1 | 1.07 | IC50 (NCI-H1299; nci-h1299): Not Active; IC50 ([6]; read-out: IC50): 2.45 µM; IC50 (A549 [5]; a549): Not Active
28 | Active | Active | – | 0.39 | – | Cc1ccc(S(=O)(=O)Nc2ccc(-c3cc4ccccc4s3)c3cccnc23)cc1 | 0.15 | IC50 (NCI-H1299; nci-h1299): Not Active; IC50 (A549 [5]; a549): Not Active
29 | Active | Active | – | – | – | O=S(=O)(Nc1ccc(-c2ccccc2)c2cccnc12)c1cccc(C(F)(F)F)c1 | – | –
30 | inactive | inactive | 9.48 | 5.88 | 11.8 | O=S(=O)(Nc1ccc(-c2ccncc2)c2cccnc12)c1cccnc1 | 1.07 | –
31 | inactive | inactive | – | – | – | CS(=O)(=O)Nc1ccc(-c2ccncc2)c2cccnc12 | – | IC50 [6]: Not Active
32 | Active | Active | 3.9 | – | 5.91 | O=S(=O)(Nc1ccc(-c2cccnc2)c2cccnc12)c1cccc(C(F)(F)F)c1 | – | –

From ChEMBL document CHEMBL3632500, “Developing structure-activity relationships from an HTS hit for inhibition of the Cks1-Skp2 protein-protein interaction” (Bioorg Med Chem Lett, 2015)
